Measured values: patent publication US20230106943A1, “ENGINEERED ANTIMICROBIAL PEPTIDES AND USAGE THEREOF” (Peptilogics, Inc., priority 2021, published 2023)
Like-named read-outs stand apart in the source and are kept apart here. No end group written: not given here.

Tests used:
[1] = Example 4 stability of concentrated solutions: UV-Vis Assay (method 78933); format: physicochemical
Description: (§1) The peptide formulation of SEQ ID NO: 1 dissolved in a saline solution with a pH of 5.0±0.1 was tested for stability under either −20° C. or 40° C. with 75% relative humidity (RH). […]

[2] = Example 4 stability of concentrated solutions: Osmolality (method 69153); format: physicochemical
Description: as §1

[3] = Example 6 solubility near saturation of SEQ ID NO: 1 in water at pH 5.0, 7.4, 8.1 (HPLC); format: physicochemical; details: for Purity of near saturation solution: water
Description: SEQ ID NO: 1 was dissolved to near saturation of different pH values.
396.69 mg of SEQ ID NO:1 was weighed out and dissolved in approximately 3 mL of HPLC-grade water resulting in a clear and colorless solution. The pH was 4.80 and the concentration approximately 132 mg/mL. The pH was adjusted with 0.08 M NaOH to pH=4.99. 1.1 mL was pulled, transferred to a serum vial, frozen and lyophilized. The remaining solution was adjusted to pH=7.40 with 0.08 M and 1 M NaOH. 1.45 mL was pulled, transferred to a serum vial, frozen and lyophilized. The remaining solution was adjusted to pH=8.00 with 0.08 M NaOH. This remaining solution (˜1.9 mL) was transferred to a serum vial, frozen and lyophilized. After lyophilization 200 μL HPLC-grade water was added to the solids in the serum vials and a colorless slurry was obtained. An additional 200 μL HPLC-grade water was added to obtain clear and colorless solutions. At pH=5.0 the solids went into solution without foaming; solids at pH=7.4 and pH=8 took longer to dissolve. These solutions (0.4 mL) were transferred to conical Eppendorf tubes. The vials were washed with 0.2 mL of HPLC grade water and the washes were combined with the respective solutions at the three different pH conditions. The samples were frozen and lyophilized. To the lyo cakes 50 μL increments of HPLC grade water was added. Transition from suspension or slurry to viscous solution was hard to capture. After adding 150 μL to 350 μL of HPLC grade water and intermittent mixing and storage at ambient temperature viscous and clear solutions were obtained which turned to gels when stored refrigerated at 2-8° C. All viscous solutions were centrifuged for 10 min at 12 krpm. No visible pellets were detected after centrifugation. Supernatants of the samples were analyzed for peptide concentration and purity by HPLC analysis.

[4] = Example 7 stability of 1 mg/mL SEQ ID NO: 1 solutions at pH 4-7, HPLC % area over storage; format: physicochemical
Description: SEQ ID NO: 1 was dissolved in sterile water for injection resulting solutions at a concentration of 1 mg/mL and pH adjusting agents were added to achieve a pH value in the range of 4-7. The pH adjusting chosen were acetate and sodium hydroxide and citric acid (for pH 4). Each of the solutions were filtered through a 0.45 um filter and samples were stored in 1 mL aliquots at 40° C., room temperature (approximately 20° C.), refrigerated conditions (5° C.), and frozen at −20° C. Samples were withdrawn at regular intervals (t=0, and Days 2, 7, 14, and 28) and analyzed by HPLC to determine if chemical degradation of the peptide could be detected in any samples. Degradation rates between samples of each pH were also analyzed.

[5] = 15.3 mg/mL solution, 40° C. and 75% RH, 1 Month
[6] = 15.3 mg/mL solution, 40° C. and 75% RH, 2 Month
[7] = 15.3 mg/mL solution, 40° C. and 75% RH, 3 Month
[8] = 15.3 mg/mL solution, 40° C. and 75% RH, 6 Month
[9] = 15.3 mg/mL solution, −20° C., 0 Month
[10] = 15.3 mg/mL solution, −20° C., 1 Month
[11] = 15.3 mg/mL solution, −20° C., 2 Month
[12] = 15.3 mg/mL solution, −20° C., 3 Month
[13] = 15.3 mg/mL solution, −20° C., 6 Month
[14] = 15.3 mg/mL solution, −20° C., 9 Month
[15] = 36.7 mg/mL solution, 40° C. and 75% RH, 1 Month
[16] = 36.7 mg/mL solution, 40° C. and 75% RH, 2 Month
[17] = 36.7 mg/mL solution, 40° C. and 75% RH, 3 Month
[18] = 36.7 mg/mL solution, 40° C. and 75% RH, 6 Month
[19] = 36.7 mg/mL solution, −20° C., 0 Month
[20] = 36.7 mg/mL solution, −20° C., 1 Month
[21] = 36.7 mg/mL solution, −20° C., 2 Month
[22] = 36.7 mg/mL solution, −20° C., 3 Month
[23] = 36.7 mg/mL solution, −20° C., 6 Month
[24] = 36.7 mg/mL solution, −20° C., 9 Month
[25] = 72.4 mg/mL solution, 40° C. and 75% RH, 1 Month
[26] = 72.4 mg/mL solution, 40° C. and 75% RH, 2 Month
[27] = 72.4 mg/mL solution, 40° C. and 75% RH, 3 Month
[28] = 72.4 mg/mL solution, 40° C. and 75% RH, 6 Month
[29] = 72.4 mg/mL solution, −20° C., 0 Month
[30] = 72.4 mg/mL solution, −20° C., 1 Month
[31] = 72.4 mg/mL solution, −20° C., 2 Month
[32] = 72.4 mg/mL solution, −20° C., 3 Month
[33] = 72.4 mg/mL solution, −20° C., 6 Month
[34] = 72.4 mg/mL solution, −20° C., 9 Month
[35] = 81.4 mg/mL solution, −20° C., 0 Month

RRWVRRVRRVWRRVVRVVRRWVRR-NH2 [SEQ ID NO: 1]
UV-Vis Assay [1, 5]: 102.0%
UV-Vis Assay [1, 6]: 102.2%
UV-Vis Assay [1, 7]: 103.9%
UV-Vis Assay [1, 8]: 102.5%
UV-Vis Assay [1, 9]: 102.0%
UV-Vis Assay [1, 10]: 101.5%
UV-Vis Assay [1, 11]: 104.0%
UV-Vis Assay [1, 12]: 105.1%
UV-Vis Assay [1, 13]: 103.9%
UV-Vis Assay [1, 14]: 103.1%
UV-Vis Assay [1, 15]: 100.3%
UV-Vis Assay [1, 16]: 101.3%
UV-Vis Assay [1, 17]: 99.2%
UV-Vis Assay [1, 18]: 100.1%
UV-Vis Assay [1, 19]: 98.1%
UV-Vis Assay [1, 20]: 100.0%
UV-Vis Assay [1, 21]: 100.6%
UV-Vis Assay [1, 22]: 101.7%
UV-Vis Assay [1, 23]: 99.5%
UV-Vis Assay [1, 24]: 100.3%
UV-Vis Assay [1, 25]: 97.8%
UV-Vis Assay [1, 26]: 98.6%
UV-Vis Assay [1, 27]: 93.4%
UV-Vis Assay [1, 28]: 95.4%
UV-Vis Assay [1, 29]: 90.1%
UV-Vis Assay [1, 30]: 97.6%
UV-Vis Assay [1, 31]: 98.2%
UV-Vis Assay [1, 32]: 94.5%
UV-Vis Assay [1, 33]: 97.0%
UV-Vis Assay [1, 34]: 99.0%
UV-Vis Assay [1, 35]: 105.0 % LC
Osmolality [2, 5]: Average Reading: 82 mOsmol/kg
Osmolality [2, 6]: Average Reading: 83 mOsmol/kg
Osmolality [2, 7]: Average Reading: 80 mOsmol/kg
Osmolality [2, 8]: 85 mOsmol/kg
Osmolality [2, 9]: Average Reading: 82 mOsmol/kg
Osmolality [2, 10]: Average Reading: 82 mOsmol/kg
Osmolality [2, 11]: Average Reading: 82 mOsmol/kg
Osmolality [2, 12]: Average Reading: 82 mOsmol/kg
Osmolality [2, 13]: 84 mOsmol/kg
Osmolality [2, 14]: 83 mOsmol/kg
Osmolality Average Reading [2, 15]: Average Reading: 188 mOsmol/kg
Osmolality Average Reading [2, 16]: Average Reading: 189 mOsmol/kg
Osmolality Average Reading [2, 17]: Average Reading: 191 mOsmol/kg
Osmolality [2, 18]: 193 mOsmol/kg
Osmolality [2, 19]: Average Reading: 190 mOsmol/kg
Osmolality [2, 20]: Average Reading: 188 mOsmol/kg
Osmolality [2, 21]: Average Reading: 190 mOsmol/kg
Osmolality [2, 22]: Average Reading: 193 mOsmol/kg
Osmolality [2, 23]: 190 mOsmol/kg
Osmolality [2, 24]: 190 mOsmol/kg
Osmolality Average Reading [2, 25]: Average Reading: 374 mOsmol/kg
Osmolality Average Reading [2, 26]: Average Reading: 379 mOsmol/kg
Osmolality Average Reading [2, 27]: Average Reading: 371 mOsmol/kg
Osmolality [2, 28]: 194 mOsmol/kg
Osmolality Average Reading [2, 29]: Average Reading: 371 mOsmol/kg
Osmolality Average Reading [2, 30]: Average Reading: 374 mOsmol/kg
Osmolality Average Reading [2, 31]: Average Reading: 376 mOsmol/kg
Osmolality Average Reading [2, 32]: Average Reading: 374 mOsmol/kg
Osmolality [2, 33]: 195 mOsmol/kg
Osmolality [2, 34]: 375 mOsmol/kg
Osmolality ([2]; 81.4 mg/mL solution, 40° C. and 75% RH, 1 Month): 489 mOsm/kg
Osmolality ([2]; 81.4 mg/mL solution, 40° C. and 75% RH, 2 Month): 491 mOsm/kg
Osmolality ([2]; 81.4 mg/mL solution, 40° C. and 75% RH, 3 Month): 492 mOsm/kg
Osmolality [2, 35]: 485 mOsm/kg
Osmolality ([2]; 81.4 mg/mL solution, −20° C., 1 Month): 489 mOsm/kg
Osmolality ([2]; 81.4 mg/mL solution, −20° C., 2 Month): 488 mOsm/kg
Osmolality ([2]; 81.4 mg/mL solution, −20° C., 3 Month): 486 mOsm/kg
solubility ([3]; pH 5, water, pH 5.0, read-out: Solubility of near saturation, Concentration): ≥ 328 mg/mL
solubility ([3]; pH 7.4, water, pH 7.4, read-out: Solubility of near saturation, Concentration): ≥ 228 mg/mL
solubility ([3]; pH 8.1, water, pH 8.1, read-out: Solubility of near saturation, Concentration): ≥ 250 mg/mL
solubility ([3]; pH=5.0, read-out: solubility near saturation concentration in water): 328 mg/mL
solubility ([3]; pH=7.4, read-out: solubility near saturation concentration in water): 228 mg/mL
solubility ([3]; pH=8.1, read-out: solubility near saturation concentration in water): 250 mg/mL
Purity of near saturation solution ([3]; pH 5.0): 95.6%
Purity of near saturation solution ([3]; pH 7.4): 97.2%
Purity of near saturation solution ([3]; pH 8.1): 96.7%
impurity change by HPLC % area ([4]; pH 4-7 samples, after 7 days of storage at 40° C.): no significant evidence of impurity increase
overall stability as a function of pH ([4]; pH 4 and pH 5 made with acetic acid): maximum stability
impurity change by HPLC % area ([4]; prepared at pH 4 with citrate, after 27 days of storage at 40° C.): increase in impurities
impurity change by HPLC % area ([4]; prepared at pH 7, after 27 days of storage at 40° C.): increase in impurities
pKa: ~12.5
